In patent US8932842B2, “Aminopyridine dimer compounds, compositions and related methods for neuronal nitric oxide synthase inhibition” (Northwestern University, priority 2009, dated 2015):
Entries after “also recorded” stand apart in the source; their conditions may differ. Where two headings read alike, the source gives them in different places.

Columns and labels:
rat nNOS = target: T1, rat nNOS (Rattus norvegicus, UniProt P29476); experiment: NOS enzyme assay (hemoglobin capture), nNOS; format: biochemical; details: for Ki: rat nNOS; for activity/potency for nNOS in words: purified enzyme assay; for n/e: ratio of Ki (eNOS) to Ki (nNOS); for n/e / n/i: Tables 1-3; for n/i: ratio of Ki (iNOS) to Ki (nNOS)
T1 construct: made in house; host or cells: E. coli

bovine eNOS = target: T2, bovine eNOS (Bos taurus, UniProt P29473); experiment: NOS enzyme assay (hemoglobin capture), eNOS; format: biochemical
T2 construct: made in house; host or cells: E. coli

murine macrophage iNOS = target: T3, murine macrophage iNOS (Mus musculus, UniProt P29477); experiment: NOS enzyme assay (hemoglobin capture), iNOS; format: biochemical
T3 construct: made in house; host or cells: E. coli

[1] = target: T4, nNOS in 293T cells overexpressing nNOS (293T/nNOS cells) (Rattus norvegicus, UniProt P29476); experiment: Cell-based assay: inhibition of nNOS in 293T/nNOS cells, nitrite by Griess reagent; details: for membrane penetration ability / bioavailability based on cell-based assay: inferred from 293T/nNOS cell-based assay; for activity in the cell-based assay in words: 293T/nNOS cells, FIG. 4
T4 construct: expressed in transfected cells; host or cells: 293T cells (293T/nNOS)

[2] = Table 4, read-out: Ki (μM) nNOS
[3] = Table 4, read-out: Ki (μM) eNOS
[4] = Table 4, read-out: Ki (μM) iNOS
[5] = Ki calculated from directly measured IC50 values, read-out: Ki nNOS
[6] = Ki calculated from directly measured IC50 values, read-out: Ki eNOS
[7] = Ki calculated from directly measured IC50 values, read-out: Ki iNOS

| activity/potency for nNOS in words (rat nNOS) | Ki (rat nNOS; [5]) [µM] | Structure (SMILES) | Selectivity n/e (rat nNOS; Table 4) | Selectivity n/i (rat nNOS; Table 4) | Ki (rat nNOS; [2]) [µM] | Ki (bovine eNOS; [3]) [µM] | Ki (murine macrophage iNOS; [4]) [µM] | further results |
| --- | --- | --- | --- | --- | --- | --- | --- | --- |
| – | – | Cc1cc(N)nc(CCc2cc(CCc3cc(C)cc(N)n3)cc(N3CCN(C)CC3)c2)c1 [HH027] | 17 | 24 | 5.75 | 97.4 | 138 | – |
| poor activity | > 11.5 | Cc1cc(C)nc(NCc2ccc3cc(CNc4cc(C)cc(C)n4)ccc3c2)c1 [3a, N,N′-(Naphthalene-2,6-diylbis(methylene))bis(4,6-dimethylpyridin-2-amine)] | – | – | – | – | – | – |
| – | – | Cc1cc(N)nc(CCc2cc(CCc3cc(C)cc(N)n3)cc(N3CCNCC3)c2)c1 [HH025] | 30 | 17 | 2.1 | 63.2 | 36.7 | – |
| little activity | > 0.5 | Cc1cc(N)nc(CCc2ccc3ccc(CCc4cc(C)nc(N)c4)cc3c2)c1 [3d, 4-(2-(7-(2-(6-Amino-4-methylpyridin-2-yl)ethyl)naphthalen-2-yl)ethyl)-6-methylpyridin-2-amine] | – | – | – | – | – | – |
| – | – | Cc1cc(N)nc(CCc2cc(CCCN)cc(CCc3cc(C)cc(N)n3)c2)c1 [HH026] | 22 | 60 | 0.54 | 12.1 | 32.5 | – |
| – | – | Cc1cc(N)nc(CCc2ccc(CCCN)c(CCc3cc(C)cc(N)n3)c2)c1 [HH032] | 303 | 199 | 0.11 | 33.4 | 21.9 | – |
| poor activity | 2.25 | Cc1cc(CCc2cccc(CCc3cc(C)nc(N)c3)c2)cc(N)n1 [3i, 4,4′-(2,2′-(1,3-Phenylene)bis(ethane-2,1-diyl))bis(6-methylpyridin-2-amine)] | – | – | – | – | – | – |
| – | – | Cc1cc(N)nc(CCc2cncc(CCc3cc(C)cc(N)n3)c2)c1 [3j, 6,6′-(2,2′-(Pyridine-3,5-diyl)bis(ethane-2,1-diyl))bis(4-methylpyridin-2-amine)] | – | – | – | – | – | membrane penetration ability / bioavailability based on cell-based assay [1]: very good membrane penetration ability; also recorded: improved bioavailability |
| – | 0.102 | Cc1cc(N)nc(CCc2ccc3ccc(CCc4cc(C)cc(N)n4)cc3c2)c1 [3c, 6,6′-(2,2′-(Naphthalene-2,7-diyl)bis(ethane-2,1-diyl))bis(4-methylpyridin-2-amine)] | – | – | – | – | – | n/e (rat nNOS): 14.9; n/i (rat nNOS): 20.1; Ki (bovine eNOS; [6]): 1.52 µM; Ki (murine macrophage iNOS; [7]): 2.05 µM |
| – | – | Cc1cc(N)nc(CCc2cc(CN)cc(CCc3cc(C)cc(N)n3)c2)c1 [HH030, 6,6′-((5-(aminomethyl)-1,3-phenylene)bis(ethane-2,1-diyl))bis(4-methylpyridin-2-amine)] | 221 | 119 | 0.053 | 11.7 | 6.31 | – |
| – | – | Cc1cc(N)nc(CCc2cccc(CCc3cc(C)cc(N)n3)c2)c1 [3g, 6,6′-(2,2′-(1,3-Phenylene)bis(ethane-2,1-diyl))bis(4-methylpyridin-2-amine)] | – | – | – | – | – | activity in the cell-based assay in words [1]: almost no activity |
| inactive | 0.167 | Cc1cc(N)nc(CCc2ccc(CCc3cc(C)nc(N)c3)cc2)c1 [3f, 4-(4-(2-(6-Amino-4-methylpyridin-2-yl)ethyl)phenethyl)-6-methylpyridin-2-amine] | – | – | – | – | – | – |

| Structure (SMILES) | activity/potency for nNOS in words (rat nNOS) | Ki (rat nNOS; [5]) [µM] | Selectivity n/e (rat nNOS; Table 4) | Selectivity n/i (rat nNOS; Table 4) | Ki (rat nNOS; [2]) [µM] | Ki (bovine eNOS; [3]) [µM] | Ki (murine macrophage iNOS; [4]) [µM] | further results |
| --- | --- | --- | --- | --- | --- | --- | --- | --- |
| Cc1cc(N)nc(CCc2cncc(CCc3cc(C)nc(N)c3)c2)c1 [3k, 4-(2-(5-(2-(6-Amino-4-methylpyridin-2-yl)ethyl)pyridin-3-yl)ethyl)-6-methylpyridin-2-amine] | highly potent | 0.103 | – | – | – | – | – | membrane penetration ability / bioavailability based on cell-based assay [1]: very good membrane penetration ability; selectivity for nNOS over eNOS (rat nNOS): 156 fold; n/e (rat nNOS): 156; n/i (rat nNOS): 19; Ki (bovine eNOS; [6]): 16.1 µM; Ki (murine macrophage iNOS; [7]): 1.91 µM |
| Cc1cc(N)nc(CCc2ccc3cc(CCc4cc(C)cc(N)n4)ccc3c2)c1 [3b, 6,6′-(2,2′-(Naphthalene-2,6-diyl)bis(ethane-2,1-diyl))bis(4-methylpyridin-2-amine)] | – | 0.241 | – | – | – | – | – | selectivity for nNOS over eNOS (rat nNOS): 7 fold; selectivity for nNOS over iNOS (rat nNOS): 9 fold; n/e (rat nNOS): 7.22; n/i (rat nNOS): 9.42; Ki (bovine eNOS; [6]): 1.74 µM; Ki (murine macrophage iNOS; [7]): 2.27 µM |
| Cc1cc(N)nc(CCc2ccc(CCc3cc(C)cc(N)n3)cc2)c1 [3e] | – | 0.097 | – | – | – | – | – | selectivity for nNOS over eNOS (rat nNOS): 25 fold; n/e (rat nNOS): 24.6; n/i (rat nNOS): 24.8; Ki (bovine eNOS; [6]): 2.39 µM; Ki (murine macrophage iNOS; [7]): 2.41 µM |
| Cc1cc(N)nc(CCc2cccc(CCc3cc(C)nc(N)c3)c2)c1 [3h, 4-(3-(2-(6-Amino-4-methylpyridin-2-yl)ethyl)phenethyl)-6-methylpyridin-2-amine] | highly potent | 0.038 | – | – | – | – | – | activity in the cell-based assay in words [1]: almost no activity; selectivity for nNOS over eNOS (rat nNOS): 111 fold; selectivity for nNOS over iNOS (rat nNOS): 71.8 fold; n/e (rat nNOS): 111; n/i (rat nNOS): 71.8; Ki (bovine eNOS; [6]): 4.2 µM; Ki (murine macrophage iNOS; [7]): 2.73 µM |
| Cc1cc(N)nc(CCc2cc(C#N)cc(CCc3cc(C)cc(N)n3)c2)c1 [HH006, 3,5-bis(2-(6-amino-4-methylpyridin-2-yl)ethyl)benzonitrile] | good potency and selectivity | – | 472 | 239 | 0.056 | 26.4 | 13.4 | – |
